According to PubChem BioAssay AID1845217 (Molecular Pharmacology Branch, DTP, NCI, 2023):
Where “and” joins values, the source holds several entries; their conditions need not be identical. Equal values may be shown once. Calls of active or inactive are those of the source. Rule for the calls: active = viability on the fitted dose curve at most 10% of control; inactive = the rest.

Tested on: VA-ES-BJ tumor spheroid viability
Assay: Anticancer human tumor VA-ES-BJ cell line growth inhibition;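 for IC50: spheroids exposed to compounds for seven days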;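 for viability, T/C: spheroids exposed to compounds for seven days; percent of DMSO vehicle control viability so 100% = untreated growth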
Conditions: spheroids with HUVEC and MSC; for viability, T/C: stronger effect = lower value
In short: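 Complex spheroids of malignant cells with endothelial cells and mesenchymal stem cells; agents alone or combined, from near clinical Cmax (or 10 microM if unknown) down in half-log steps, 0.25% DMSO final.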

[1] = curve of first compound, second compound 0.003 µM
[2] = second compound 0.003 µM, first compound 0.0316 µM
[3] = second compound 0.003 µM, first compound 0.1 µM
[4] = second compound 0.003 µM, first compound 0.316 µM
[5] = second compound 0.003 µM, first compound 1 µM
[6] = second compound 0.003 µM, first compound 3.16 µM
[7] = second compound 0.003 µM, first compound 10 µM

Cc1cc(C)c(CNC(=O)c2cc(-c3ccc(CN4CCOCC4)cc3)cc3c2cnn3C2CCCC2)c(=O)[nH]1 + COc1cc2c(cc1O)CCNC21CSC2c3c(OC(C)=O)c(C)c4c(c3C(COC1=O)N1C(O)C3Cc5cc(C)c(OC)c(O)c5C(C21)N3C)OCO4
active: viability, T/C (second compound 0.000949 µM, first compound 0.0316 µM) 2.91% | viability, T/C (second compound 0.000949 µM, first compound 0.1 µM) 3.27% | viability, T/C (second compound 0.000949 µM, first compound 0.316 µM) 3.08% | viability, T/C (second compound 0.000949 µM, first compound 1 µM) 2.61% | viability, T/C (second compound 0.000949 µM, first compound 3.16 µM) 2.08% | viability, T/C (second compound 0.000949 µM, first compound 10 µM) 1.68% | viability, T/C [2] 0.95% | viability, T/C [3] 1.8% | viability, T/C [4] 1.23% | viability, T/C [5] 1.96% | viability, T/C [6] 1.92% | viability, T/C [7] 1.57%
> 10000 nM: IC50 (curve of first compound, second compound 30 pM) | IC50 (curve of first compound, second compound 94.9 pM)
inactive: viability, T/C (second compound 30 pM, first compound 0.0316 µM) 103% | viability, T/C (second compound 30 pM, first compound 0.1 µM) 105% | viability, T/C (second compound 30 pM, first compound 0.316 µM) 109% | viability, T/C (second compound 30 pM, first compound 1 µM) 104% | viability, T/C (second compound 30 pM, first compound 3.16 µM) 101% | viability, T/C (second compound 30 pM, first compound 10 µM) 96.4% | viability, T/C (second compound 94.9 pM, first compound 0.0316 µM) 97.6% | viability, T/C (second compound 94.9 pM, first compound 0.1 µM) 101% | viability, T/C (second compound 94.9 pM, first compound 0.316 µM) 96.8% | viability, T/C (second compound 94.9 pM, first compound 1 µM) 95.2% | viability, T/C (second compound 94.9 pM, first compound 3.16 µM) 88.7% | viability, T/C (second compound 94.9 pM, first compound 10 µM) 82.6% | viability, T/C (second compound 0.0003 µM, first compound 0.0316 µM) 48.5% | viability, T/C (second compound 0.0003 µM, first compound 0.1 µM) 48.4% | viability, T/C (second compound 0.0003 µM, first compound 0.316 µM) 47.7% | viability, T/C (second compound 0.0003 µM, first compound 1 µM) 42.4% | viability, T/C (second compound 0.0003 µM, first compound 3.16 µM) 38.6% | viability, T/C (second compound 0.0003 µM, first compound 10 µM) 32.6%
< 31.6 nM: IC50 (curve of first compound, second compound 0.0003 µM) | IC50 (curve of first compound, second compound 0.000949 µM) | IC50 [1]

COc1cc(C)[nH]c(=O)c1CN1CCc2c(Cl)cc(C(OC)C3COC3)c(Cl)c2C1=O (stereo not drawn)
1550 nM and > 10000 nM: IC50 (curve of compound)
inactive: viability, T/C (compound 0.0316 µM) 90.1% and 94.4% | outcome (compound 0.0316 µM) | viability, T/C (compound 0.1 µM) 60.6% and 79.6% and 86.1% | viability, T/C (compound 0.316 µM) 62.8% and 67% and 69.9% | viability, T/C (compound 1 µM) 50.1% and 56.3% and 63.1% | viability, T/C (compound 3.16 µM) 44.1% and 54.4% and 58.9% | viability, T/C (compound 10 µM) 41.7% and 49.4% and 52.7%

[2H]c1nc(C)nc([2H])c1-c1cc(NC[C@@H](C)c2cccc3c(C(=O)NC)ccnc23)ncn1 + CC[C@@]1(O)C(=O)OCc2c1cc1n(c2=O)Cc2cc3c(CN(C)C)c(O)ccc3nc2-1
active: viability, T/C (second compound 0.0949 µM, first compound 0.0316 µM) 9.76% | viability, T/C (second compound 0.0949 µM, first compound 0.1 µM) 8.96% | viability, T/C (second compound 0.0949 µM, first compound 0.316 µM) 7.7% | viability, T/C (second compound 0.0949 µM, first compound 1 µM) 8.02% | viability, T/C (second compound 0.0949 µM, first compound 3.16 µM) 8.96% | viability, T/C (second compound 0.0949 µM, first compound 10 µM) 8.01% | viability, T/C (second compound 0.3 µM, first compound 0.0316 µM) 6.31% | viability, T/C (second compound 0.3 µM, first compound 0.1 µM) 6.82% | viability, T/C (second compound 0.3 µM, first compound 0.316 µM) 5.89% | viability, T/C (second compound 0.3 µM, first compound 1 µM) 5.88% | viability, T/C (second compound 0.3 µM, first compound 3.16 µM) 5.82% | viability, T/C (second compound 0.3 µM, first compound 10 µM) 5.63%
203 nM: IC50 (curve of first compound, second compound 0.03 µM)
> 10000 nM: IC50 [1] | IC50 (curve of first compound, second compound 0.00949 µM)
< 31.6 nM: IC50 (curve of first compound, second compound 0.0949 µM) | IC50 (curve of first compound, second compound 0.3 µM)
inactive: viability, T/C [2] 101% | viability, T/C [3] 95.9% | viability, T/C [4] 99.5% | viability, T/C [5] 100% | viability, T/C [6] 105% | viability, T/C [7] 100% | viability, T/C (second compound 0.00949 µM, first compound 0.0316 µM) 90.1% | viability, T/C (second compound 0.00949 µM, first compound 0.1 µM) 90.6% | viability, T/C (second compound 0.00949 µM, first compound 0.316 µM) 90.6% | viability, T/C (second compound 0.00949 µM, first compound 1 µM) 92.4% | viability, T/C (second compound 0.00949 µM, first compound 3.16 µM) 87.3% | viability, T/C (second compound 0.00949 µM, first compound 10 µM) 81.6% | viability, T/C (second compound 0.03 µM, first compound 0.0316 µM) 53.3% | viability, T/C (second compound 0.03 µM, first compound 0.1 µM) 48.2% | viability, T/C (second compound 0.03 µM, first compound 0.316 µM) 49.9% | viability, T/C (second compound 0.03 µM, first compound 1 µM) 50.2% | viability, T/C (second compound 0.03 µM, first compound 3.16 µM) 46.4% | viability, T/C (second compound 0.03 µM, first compound 10 µM) 46%
